# Assay results taken from ChEMBL document CHEMBL5465560, “Selectivity Literature for EUbOPEN Chemogenomic Library” (2024).
# Assays:
# [1] = biological target: Tyrosine-protein kinase SYK (Homo sapiens, UniProt P43405); assay: Selectivity interaction (Kinase panel (Z-LYTE Assay)) EUB0001632a SYK; settings: at 10 µM
# [2] = biological target: Cyclin-dependent kinase-like 3 (Homo sapiens) (UniProt Q8IVW4); assay: Selectivity interaction (KinomeScan (DiscoverX)) EUB0000666a CDKL3; settings: at 10 µM
# [3] = biological target: Serine/threonine-protein kinase PAK 2 (Homo sapiens) (UniProt Q13177); assay: Selectivity interaction (KinomeScan (DiscoverX)) EUB0000666a PAK2; settings: at 10 µM
# [4] = biological target: T1, TGF-beta receptor type-1 (Homo sapiens) (UniProt P36897); assay: Selectivity interaction (KinomeScan (DiscoverX)) EUB0000607a TGFBR1; settings: at 10 µM
# T1 sequence (whole entry): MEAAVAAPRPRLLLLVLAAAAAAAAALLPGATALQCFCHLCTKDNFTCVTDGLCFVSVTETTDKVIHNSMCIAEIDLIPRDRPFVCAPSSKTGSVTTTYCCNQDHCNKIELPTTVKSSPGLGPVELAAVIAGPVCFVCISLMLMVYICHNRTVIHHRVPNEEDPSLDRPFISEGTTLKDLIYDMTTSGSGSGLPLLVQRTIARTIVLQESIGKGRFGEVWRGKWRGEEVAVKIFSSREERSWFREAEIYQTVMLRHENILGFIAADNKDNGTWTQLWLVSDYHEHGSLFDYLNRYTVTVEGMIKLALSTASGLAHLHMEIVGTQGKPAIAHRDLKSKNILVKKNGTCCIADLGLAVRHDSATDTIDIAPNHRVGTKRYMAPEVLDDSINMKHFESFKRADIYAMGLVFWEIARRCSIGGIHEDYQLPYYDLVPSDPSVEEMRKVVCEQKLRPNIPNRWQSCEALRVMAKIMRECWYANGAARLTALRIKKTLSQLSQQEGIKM
# [5] = biological target: T2, Serine/threonine-protein kinase Nek1 (Homo sapiens) (UniProt Q96PY6); assay: Selectivity interaction (Kinase panel (DSF assay)) EUB0001559a NEK1
# T2 sequence (whole entry): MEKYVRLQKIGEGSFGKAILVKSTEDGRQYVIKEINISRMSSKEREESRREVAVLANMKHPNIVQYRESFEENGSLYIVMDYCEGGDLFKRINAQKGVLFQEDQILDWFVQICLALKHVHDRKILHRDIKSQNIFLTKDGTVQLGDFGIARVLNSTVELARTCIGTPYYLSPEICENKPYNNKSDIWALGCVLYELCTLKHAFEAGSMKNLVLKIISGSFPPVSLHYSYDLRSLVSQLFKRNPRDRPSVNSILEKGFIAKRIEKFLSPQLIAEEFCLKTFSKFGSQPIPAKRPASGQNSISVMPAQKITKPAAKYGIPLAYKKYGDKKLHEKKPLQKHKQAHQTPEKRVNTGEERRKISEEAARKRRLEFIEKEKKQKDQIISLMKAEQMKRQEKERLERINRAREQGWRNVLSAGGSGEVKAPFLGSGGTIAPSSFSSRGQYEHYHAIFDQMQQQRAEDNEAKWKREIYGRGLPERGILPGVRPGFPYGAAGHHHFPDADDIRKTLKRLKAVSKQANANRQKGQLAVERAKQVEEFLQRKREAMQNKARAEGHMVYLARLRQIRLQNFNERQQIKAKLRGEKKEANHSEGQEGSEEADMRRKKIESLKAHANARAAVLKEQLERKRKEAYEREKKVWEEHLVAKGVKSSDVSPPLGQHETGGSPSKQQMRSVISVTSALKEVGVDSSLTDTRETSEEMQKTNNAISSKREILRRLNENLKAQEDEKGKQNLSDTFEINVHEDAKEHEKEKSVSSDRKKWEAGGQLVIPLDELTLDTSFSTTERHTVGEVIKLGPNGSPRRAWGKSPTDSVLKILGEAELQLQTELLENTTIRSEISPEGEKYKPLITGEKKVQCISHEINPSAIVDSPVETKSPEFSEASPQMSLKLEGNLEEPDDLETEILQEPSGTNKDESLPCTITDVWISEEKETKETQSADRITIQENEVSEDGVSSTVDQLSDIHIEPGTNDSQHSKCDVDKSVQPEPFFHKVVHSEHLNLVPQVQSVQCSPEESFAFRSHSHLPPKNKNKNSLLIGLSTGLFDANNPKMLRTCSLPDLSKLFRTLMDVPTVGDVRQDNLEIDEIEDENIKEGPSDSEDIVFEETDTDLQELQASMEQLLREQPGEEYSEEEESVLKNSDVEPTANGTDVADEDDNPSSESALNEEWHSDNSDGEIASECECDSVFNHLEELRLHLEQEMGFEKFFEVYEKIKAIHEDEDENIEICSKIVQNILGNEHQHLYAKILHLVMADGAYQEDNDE
# [6] = biological target: T3, Tyrosine-protein kinase ZAP-70 (Homo sapiens, UniProt P43403); assay: Selectivity interaction (Kinase panel (enzymatic assay)) EUB0000595a ZAP70
# T3 sequence (P43403 whole entry): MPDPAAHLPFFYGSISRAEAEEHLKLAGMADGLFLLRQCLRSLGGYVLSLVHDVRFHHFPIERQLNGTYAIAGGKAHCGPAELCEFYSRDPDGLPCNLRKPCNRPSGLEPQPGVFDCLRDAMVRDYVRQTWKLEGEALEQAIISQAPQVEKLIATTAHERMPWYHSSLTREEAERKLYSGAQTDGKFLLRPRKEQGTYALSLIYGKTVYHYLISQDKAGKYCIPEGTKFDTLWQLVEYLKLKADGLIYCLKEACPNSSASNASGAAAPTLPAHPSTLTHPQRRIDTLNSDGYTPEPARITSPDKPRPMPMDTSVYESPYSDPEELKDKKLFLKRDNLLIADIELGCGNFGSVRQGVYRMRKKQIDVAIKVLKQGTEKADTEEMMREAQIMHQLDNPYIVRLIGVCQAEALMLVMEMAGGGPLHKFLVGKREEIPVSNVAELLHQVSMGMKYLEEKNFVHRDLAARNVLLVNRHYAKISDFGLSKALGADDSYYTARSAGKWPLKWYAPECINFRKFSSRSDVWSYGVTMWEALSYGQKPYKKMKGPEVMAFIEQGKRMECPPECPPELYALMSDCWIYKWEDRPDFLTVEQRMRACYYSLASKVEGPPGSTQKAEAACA
# [7] = biological target: Serine/threonine-protein kinase RIO2 (Homo sapiens) (UniProt Q9BVS4); assay: Selectivity interaction (KinomeScan (DiscoverX)) EUB0001049a RIOK2; settings: at 1 µM
# [8] = biological target: Tyrosine-protein kinase JAK1 (Homo sapiens, UniProt P23458)
# [9] = biological target: Calcium/calmodulin-dependent protein kinase type 1G (Homo sapiens) (UniProt Q96NX5); settings: at 10 µM
# [10] = biological target: Serine/threonine-protein kinase MARK1 (Homo sapiens) (UniProt Q9P0L2); settings: at 10 µM
# [11] = test system: Epidermal growth factor receptor (Homo sapiens), P00533 [UNDEFINED MUTATION]; settings: at 10 µM
# Sequence of Epidermal growth factor receptor (Homo sapiens), P00533 [UNDEFINED MUTATION] (P00533 whole entry, looked up, change not shown): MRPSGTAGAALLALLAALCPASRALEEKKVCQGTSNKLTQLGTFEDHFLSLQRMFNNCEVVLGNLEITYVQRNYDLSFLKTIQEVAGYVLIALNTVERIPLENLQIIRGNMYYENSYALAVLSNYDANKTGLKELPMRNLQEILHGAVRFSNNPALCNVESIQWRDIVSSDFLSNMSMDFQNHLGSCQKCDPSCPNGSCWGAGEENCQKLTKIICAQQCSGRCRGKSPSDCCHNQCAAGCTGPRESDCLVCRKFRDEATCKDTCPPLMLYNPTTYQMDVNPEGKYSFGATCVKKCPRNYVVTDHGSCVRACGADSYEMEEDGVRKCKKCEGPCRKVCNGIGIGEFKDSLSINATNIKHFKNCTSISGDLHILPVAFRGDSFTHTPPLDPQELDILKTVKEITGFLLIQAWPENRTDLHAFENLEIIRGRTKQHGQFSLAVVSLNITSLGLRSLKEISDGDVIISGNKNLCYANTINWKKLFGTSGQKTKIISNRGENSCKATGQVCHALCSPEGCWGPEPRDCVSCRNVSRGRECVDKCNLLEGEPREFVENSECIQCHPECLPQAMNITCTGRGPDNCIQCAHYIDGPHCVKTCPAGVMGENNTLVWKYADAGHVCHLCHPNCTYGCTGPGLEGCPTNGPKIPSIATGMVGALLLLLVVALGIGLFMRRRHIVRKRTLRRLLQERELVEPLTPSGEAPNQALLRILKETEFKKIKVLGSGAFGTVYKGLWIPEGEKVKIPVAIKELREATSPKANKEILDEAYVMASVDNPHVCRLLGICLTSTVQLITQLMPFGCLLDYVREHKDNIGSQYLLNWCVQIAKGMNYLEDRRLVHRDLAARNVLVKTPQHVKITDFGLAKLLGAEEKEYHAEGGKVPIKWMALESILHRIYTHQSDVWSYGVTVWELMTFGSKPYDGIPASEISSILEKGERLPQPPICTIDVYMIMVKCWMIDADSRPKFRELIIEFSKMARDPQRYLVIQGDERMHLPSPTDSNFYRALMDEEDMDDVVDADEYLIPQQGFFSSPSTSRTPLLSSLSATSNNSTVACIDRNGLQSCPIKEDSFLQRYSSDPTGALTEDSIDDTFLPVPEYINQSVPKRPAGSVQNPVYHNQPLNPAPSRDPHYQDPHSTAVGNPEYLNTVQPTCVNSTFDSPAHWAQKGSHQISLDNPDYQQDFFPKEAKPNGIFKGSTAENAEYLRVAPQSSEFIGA
# Sequence of Tyrosine-protein kinase JAK1 (P23458 whole entry): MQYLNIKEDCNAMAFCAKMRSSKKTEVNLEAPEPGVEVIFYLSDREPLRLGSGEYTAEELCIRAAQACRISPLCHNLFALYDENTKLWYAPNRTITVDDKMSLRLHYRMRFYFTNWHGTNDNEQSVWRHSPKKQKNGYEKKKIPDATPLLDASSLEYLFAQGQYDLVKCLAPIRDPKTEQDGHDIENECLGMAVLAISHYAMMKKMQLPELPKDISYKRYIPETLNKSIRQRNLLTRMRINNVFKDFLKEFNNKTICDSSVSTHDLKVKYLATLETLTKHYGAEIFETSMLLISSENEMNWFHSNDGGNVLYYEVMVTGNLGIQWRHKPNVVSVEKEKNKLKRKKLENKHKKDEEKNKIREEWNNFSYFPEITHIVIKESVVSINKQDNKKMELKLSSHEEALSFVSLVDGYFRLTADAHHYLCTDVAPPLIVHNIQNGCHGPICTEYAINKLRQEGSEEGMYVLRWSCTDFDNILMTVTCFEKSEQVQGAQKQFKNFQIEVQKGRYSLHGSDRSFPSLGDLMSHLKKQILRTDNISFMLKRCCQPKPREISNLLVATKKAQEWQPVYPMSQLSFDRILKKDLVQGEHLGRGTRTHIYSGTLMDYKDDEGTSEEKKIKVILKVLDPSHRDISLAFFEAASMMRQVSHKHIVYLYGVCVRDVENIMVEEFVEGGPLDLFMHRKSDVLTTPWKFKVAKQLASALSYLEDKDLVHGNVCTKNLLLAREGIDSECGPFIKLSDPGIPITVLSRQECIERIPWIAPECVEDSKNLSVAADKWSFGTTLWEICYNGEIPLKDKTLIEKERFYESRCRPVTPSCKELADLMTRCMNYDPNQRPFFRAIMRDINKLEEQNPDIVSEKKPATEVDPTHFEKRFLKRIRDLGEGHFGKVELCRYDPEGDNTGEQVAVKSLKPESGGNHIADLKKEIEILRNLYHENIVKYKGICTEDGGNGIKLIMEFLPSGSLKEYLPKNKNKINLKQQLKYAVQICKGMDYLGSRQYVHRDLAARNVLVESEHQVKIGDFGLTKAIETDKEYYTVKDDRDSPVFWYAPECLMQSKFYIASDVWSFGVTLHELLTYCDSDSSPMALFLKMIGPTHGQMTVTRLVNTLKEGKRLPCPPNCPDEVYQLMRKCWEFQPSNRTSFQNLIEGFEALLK
# Sequence of Serine/threonine-protein kinase PAK 2 (Homo sapiens) (Q13177 whole entry): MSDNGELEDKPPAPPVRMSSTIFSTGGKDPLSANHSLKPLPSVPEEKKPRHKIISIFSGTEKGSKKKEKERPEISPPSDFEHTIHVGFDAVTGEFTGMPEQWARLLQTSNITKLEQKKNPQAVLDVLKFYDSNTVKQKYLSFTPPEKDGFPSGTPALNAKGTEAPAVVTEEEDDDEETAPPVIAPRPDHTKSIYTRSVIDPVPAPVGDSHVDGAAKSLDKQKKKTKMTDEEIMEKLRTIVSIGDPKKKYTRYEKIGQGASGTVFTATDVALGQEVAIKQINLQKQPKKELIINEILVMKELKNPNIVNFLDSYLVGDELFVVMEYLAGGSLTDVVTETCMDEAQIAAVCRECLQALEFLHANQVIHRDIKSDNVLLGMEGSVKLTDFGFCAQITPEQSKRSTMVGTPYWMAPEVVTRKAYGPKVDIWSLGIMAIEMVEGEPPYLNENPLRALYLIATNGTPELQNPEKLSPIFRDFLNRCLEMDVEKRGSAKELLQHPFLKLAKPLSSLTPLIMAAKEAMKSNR
# Sequence of Serine/threonine-protein kinase MARK1 (Homo sapiens) (Q9P0L2 whole entry, looked up): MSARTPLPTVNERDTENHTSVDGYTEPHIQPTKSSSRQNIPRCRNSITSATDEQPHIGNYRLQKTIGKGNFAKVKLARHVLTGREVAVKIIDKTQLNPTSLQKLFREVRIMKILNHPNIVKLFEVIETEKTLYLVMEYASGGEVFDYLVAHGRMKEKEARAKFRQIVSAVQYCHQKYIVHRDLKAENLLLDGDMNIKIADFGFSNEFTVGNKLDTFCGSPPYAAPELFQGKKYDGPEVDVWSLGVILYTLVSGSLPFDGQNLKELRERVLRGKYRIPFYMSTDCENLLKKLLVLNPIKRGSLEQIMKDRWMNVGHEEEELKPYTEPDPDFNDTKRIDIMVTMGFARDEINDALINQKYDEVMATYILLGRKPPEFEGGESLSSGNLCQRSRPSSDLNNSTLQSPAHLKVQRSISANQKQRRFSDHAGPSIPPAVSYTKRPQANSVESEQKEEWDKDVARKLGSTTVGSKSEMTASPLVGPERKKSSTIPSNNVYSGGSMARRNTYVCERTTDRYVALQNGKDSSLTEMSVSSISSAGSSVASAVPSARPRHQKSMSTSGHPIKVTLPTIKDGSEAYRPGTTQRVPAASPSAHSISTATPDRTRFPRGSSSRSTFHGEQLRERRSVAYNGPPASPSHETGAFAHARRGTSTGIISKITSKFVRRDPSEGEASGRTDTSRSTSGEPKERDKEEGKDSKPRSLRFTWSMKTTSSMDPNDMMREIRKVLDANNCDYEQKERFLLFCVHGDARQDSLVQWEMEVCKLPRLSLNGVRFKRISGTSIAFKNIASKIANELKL
# Sequence of Calcium/calmodulin-dependent protein kinase type 1G (Homo sapiens) (Q96NX5 whole entry): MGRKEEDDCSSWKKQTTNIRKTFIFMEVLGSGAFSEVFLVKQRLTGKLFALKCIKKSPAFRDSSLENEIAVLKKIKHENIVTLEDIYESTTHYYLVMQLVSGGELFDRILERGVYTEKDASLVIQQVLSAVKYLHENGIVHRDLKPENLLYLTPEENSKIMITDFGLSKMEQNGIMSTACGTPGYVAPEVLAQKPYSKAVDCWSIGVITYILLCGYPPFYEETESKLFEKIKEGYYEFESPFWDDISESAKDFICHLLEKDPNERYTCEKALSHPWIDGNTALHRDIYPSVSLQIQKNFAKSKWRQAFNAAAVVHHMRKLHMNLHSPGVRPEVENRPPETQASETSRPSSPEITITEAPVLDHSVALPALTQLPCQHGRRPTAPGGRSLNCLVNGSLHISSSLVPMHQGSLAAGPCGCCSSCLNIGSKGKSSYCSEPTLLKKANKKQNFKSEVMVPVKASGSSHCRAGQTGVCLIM
# Sequence of Cyclin-dependent kinase-like 3 (Homo sapiens) (Q8IVW4 whole entry, looked up): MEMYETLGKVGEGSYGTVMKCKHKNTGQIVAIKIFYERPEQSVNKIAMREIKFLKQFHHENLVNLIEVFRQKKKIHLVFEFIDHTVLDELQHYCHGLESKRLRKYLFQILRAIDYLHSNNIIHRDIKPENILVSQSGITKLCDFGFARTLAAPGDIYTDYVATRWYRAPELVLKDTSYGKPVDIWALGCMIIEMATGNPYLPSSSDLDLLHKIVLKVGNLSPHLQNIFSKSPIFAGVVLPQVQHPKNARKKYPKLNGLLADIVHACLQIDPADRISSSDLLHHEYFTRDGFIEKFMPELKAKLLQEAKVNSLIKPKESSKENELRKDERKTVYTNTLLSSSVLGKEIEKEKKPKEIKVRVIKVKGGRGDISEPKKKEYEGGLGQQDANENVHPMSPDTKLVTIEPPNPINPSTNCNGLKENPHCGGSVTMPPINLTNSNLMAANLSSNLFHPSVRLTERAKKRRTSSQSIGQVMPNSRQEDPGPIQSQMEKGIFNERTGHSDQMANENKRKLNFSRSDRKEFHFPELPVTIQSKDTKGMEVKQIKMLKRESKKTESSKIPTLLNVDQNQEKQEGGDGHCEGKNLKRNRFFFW
compound,measurement,setting,value
Cn1cc(-n2cnc3c(NCc4nc5cc(Cl)c(Cl)cc5[nH]4)nc(N4CCOCC4)nc32)cn1,% of control,[1],3.71%
O=C(NOC[C@H](O)CO)c1ccc(F)c(F)c1Nc1ccc(I)cc1F,% of control,[2],98%
same,% of control,[3],93%
CNC(=O)Nc1ccc(-c2nc(N3CC4CCC(C3)O4)c3cnn(C4CCC5(CC4)OCCO5)c3n2)cc1,% of control,[4],100%
CN(C(=O)c1cnn2cccnc12)c1cc2c(cc1N1CCOCC1)C(=O)N(C[C@@H](F)C(C)(C)O)C2,dTM,[5],0.4 K
COCC(=O)NC/C=C/c1ccc2ncnc(Nc3ccc(Oc4ccc(C)nc4)c(C)c3)c2c1 [CP-724714],IC50,[6],> 10 µM
COc1cc(Nc2nc(C)cc(-c3cnn4nc(OC)ccc34)n2)cc(C(F)(F)F)c1,% of control,[7],87%
CCc1cccc(CC)c1NC(=O)c1nn(C)c2c1CCc1cnc(Nc3ccc(C(=O)NC4CCN(C)CC4)cc3OC(F)(F)F)nc1-2,IC50,[8],> 10 µM
Cc1cc([C@@H](C)Nc2ccccc2C(=O)O)c2nc(N3CCOCC3)cc(=O)n2c1 [AZD-6482],% of control,[9],91%
same,% of control,[10],100%
same,% of control,[11],100%
